Type in all cases: cell-based
Assay [1] relates to Ptch and Gli1 expression in human aortic smooth muscle cells (HASMC). In words: Hh target gene (Ptch, Gli1) mRNA expression in HASMC by Q-RT-PCR. To be noted: 48 hours of treatment. The procedure: (§1) Treatment of HASMC with Shh was examined to determine if Shh induces the expression of target genes, Ptch and Gli. […] This difference may be cell-type specific or may be due to heterogeneity in vascular smooth muscle cell populations and their differentiation state. Ptch and Gli1 mRNA expression was induced when using 3 μg/ml of rmShh after 48 hours of treatment (1.6 fold and 1.8 fold, respectively, compared to control vehicle-treated cells as assessed by Q-RT-PCR analysis). This is consistent with studies in which 3.5 μg/ml of Shh was used to activate rat vascular SMC. It is likely that local Shh concentrations may reach very high levels in the microenvironment of the vessel wall, since, as described herein, substantial immunostaining for Shh in atherosclerotic lesions was observed. Cells within the atherosclerotic lesion may also become more susceptible to Shh over time due to the inflammatory insults associated with that environment. […] Dose response and time course experiments can determine the extent and kinetics of Hh target gene expression in aortic SMC, as well as in other vascular cells, using techniques known to a person of ordinary skill.

The subject of assay [2] is Gli1 expression in mouse aortic smooth muscle cells (MASMC). In words: Hh target gene (Gli1) expression in MASMC. To be noted: 48 hours of treatment. The procedure:
as §1

In assay [3] the test system is pluripotent mesenchymal cells derived from the bone marrow. The experiment in a line: Oxysterol-induced osteoblastic differentiation of pluripotent mesenchymal cells. To be noted: hedgehog pathway inhibitor added to oxysterol-treated cells. The source says:
These mesenchymal cells, which serve as osteoprogenitors during skeletal development and bone remodeling, are induced to undergo osteoblastic differentiation when treated with osteoinductive oxysterols.

Consider `CC(C)CCC[C@](C)(O)[C@H]1CC[C@H]2[C@@H]3CC=C4C[C@@H](O)CC[C@]4(C)[C@H]3CC[C@@]21C` [20(S)-hydroxycholesterol], for which the “increase in Gli1 expression” value in assay [1] and in assay [2] was 2 fold throughout.

`CC1=C2C[C@H]3[C@@H](CC=C4C[C@@H](O)CC[C@@]43C)[C@@H]2CC[C@]12O[C@@H]1C[C@H](C)CN[C@H]1[C@H]2C` [cyclopamine]: the “oxysterol-induced osteoblastic differentiation of cells” value in assay [3] is recorded as “completely inhibited”.

The values are drawn from patent US20100112030A1, “ROLE OF HEDGEHOG SIGNALING IN ATHEROSCLEROSIS AND CARDIOVASCULAR DISEASE” (The Regents of the University of California, priority 2007, published 2010).
